Columns and labels:
[1] = Kinetic thiol consumption assay with model thiol glutathione; format: physicochemical; set-up: Rate constant with glutathione (k(GSH)): unit not given here; conditions: for Rate constant with glutathione (k(GSH)): 500 μM ligand, 5 μM thiol, phosphate buffer pH 8; for Rate constant with Glutathione: Protein: Glutathione, cysteine position NA, in h-1
In short: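 Rate constants for acrylamide reaction with 5 μM glutathione come from first-order exponential fits of normalized fluorescence decay (ex 380, em 470 nm). Reactions run in degassed phosphate buffer at pH 8 containing TCEP beads, room temperature.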

[2] = target: T1, human cyclin-dependent kinase 2 (Cdk2) (Homo sapiens, UniProt P24941); assay: Kinetic thiol consumption assay with wild type Cdk2 (C177); format: binding; set-up: key to Rate enhancement, Cdk2 WT: k(Cdk2) divided by k(model thiol); Rate constant with Cdk2 (k(Cdk2)): unit not given here; conditions: for Rate constant with Cdk2 (k(Cdk2)): 500 μM ligand, 5 μM thiol, phosphate buffer pH 8; for Rate enhancement, Cdk2 WT: no additional mutations; for Rate constant with Cdk2 WT: Protein: Cdk2, cysteine position WT, in h^-1; for k(Cdk2)/k(Cdk2_mut) rate enhancement: model thiol Cdk2[C177A, F80C, K278C]; for k(Cdk2)/k(GSH) rate enhancement: model thiol glutathione
T1 construct: poly-histidine; made in house; host or cells: E. coli
In short: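 His-tagged human Cdk2 from E. coli (sole surface cysteine C177) or a model thiol, each 5 μM in degassed phosphate buffer pH 8 with immobilized TCEP, reacted with acrylamides at room temperature. Fluorescence (ex 380/em 470) normalized to DMSO/thiol control over time; first-order rate constants, Cdk2 rate divided by model-thiol rate.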

Cdk2[C177A, F80C, K278C] = target: T2, Cdk2[C177A, F80C, K278C] (Homo sapiens, UniProt P24941, C177A/F80C/K278C); assay: Kinetic thiol consumption assay with mutant Cdk2 as model thiol; format: binding; set-up: unit not given here; conditions: 500 μM ligand, 5 μM thiol, phosphate buffer pH 8
T2 construct: poly-histidine; made in house; host or cells: E. coli
In short: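 First-order rate constants were derived by exponential-decay fitting of DMSO/thiol-normalized fluorescence (380/470 nm) over time at room temperature. Thiol was 5 μM E. coli-expressed His-tagged Cdk2 mutant C177A/F80C/K278C in degassed pH 8 phosphate buffer containing 2% v/v TCEP beads.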

Cdk2(C177A, F80C) = target: T3, Cdk2(C177A, F80C) (Homo sapiens, UniProt P24941, C177A/F80C); assay: Kinetic thiol consumption assay with Cdk2 mutant F80C, incl. kobs versus concentration (Kd, k2); format: binding; set-up: key to Rate enhancement, Cdk2 F80C: Cdk2 rate constant divided by model-thiol rate constant; conditions: additional mutation C177A; for Rate constant with Cdk2 F80C: Protein: Cdk2, cysteine position F80C, in h^-1
T3 construct: poly-histidine; made in house; host or cells: E. coli
In short: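 His-tagged Cdk2(C177A/F80C) from E. coli or model thiol, 5 μM in degassed phosphate buffer pH 8 with TCEP beads, reacted with acrylamide ligands; fluorescence (ex/em 380/470 nm) normalized to DMSO control and fitted to first-order decay for kobs. Kd and k2 obtained from hyperbolic fit of kobs versus ligand concentration.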

Cdk2(H71C) (C177A) = target: T4, Cdk2(H71C) (C177A) (Homo sapiens, UniProt P24941, C177A/H71C); assay: Kinetic thiol consumption assay with Cdk2 mutant H71C; format: binding; set-up: key to Rate enhancement, Cdk2 H71C: rate constant with Cdk2 ÷ rate constant with model thiol (fold); conditions: additional mutation C177A; for Rate constant with Cdk2 H71C: Protein: Cdk2, cysteine position H71C, in h^-1
T4 construct: poly-histidine; made in house; host or cells: E. coli
In short: (§1)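 Read-out is fluorescence at 380/470 nm, taken after 1 h at room temperature and normalized to a DMSO/thiol-only control over time. Thiol (5 μM Cdk2 mutant or model thiol) was in degassed pH 8 phosphate buffer with 2% v/v TCEP beads. Acrylamide rate constants for Cdk2 were divided by those with model thiol.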

Cdk2(S276C) (C177A) = target: T5, Cdk2(S276C) (C177A) (Homo sapiens, UniProt P24941, C177A/S276C); assay: Kinetic thiol consumption assay with Cdk2 mutant S276C; format: binding; set-up: key to Rate enhancement, Cdk2 S276C: rate constant with Cdk2 ÷ rate constant with model thiol (fold); conditions: additional mutation C177A; for Rate constant with Cdk2 S276C: Protein: Cdk2, cysteine position S276C, in h^-1
T5 construct: poly-histidine; made in house; host or cells: E. coli
In short: as §1

Cdk2(N272C) (C177A) = target: T6, Cdk2(N272C) (C177A) (Homo sapiens, UniProt P24941, C177A/N272C); assay: Kinetic thiol consumption assay with Cdk2 mutant N272C; format: binding; set-up: key to Rate enhancement, Cdk2 N272: rate constant with Cdk2 ÷ rate constant with model thiol (fold); conditions: for Rate enhancement, Cdk2 N272: Cdk2 N272, additional mutation C177A; for Rate constant with Cdk2 N272C: Protein: Cdk2, cysteine position N272C, additional mutation C177A, in h^-1
T6 construct: poly-histidine; made in house; host or cells: E. coli
In short: as §1

Cdk2(T182C) (C177A) = target: T7, Cdk2(T182C) (C177A) (Homo sapiens, UniProt P24941, C177A/T182C); assay: Kinetic thiol consumption assay with Cdk2 mutant T182C; format: binding; set-up: key to Rate enhancement, Cdk2 T182C: rate constant with Cdk2 ÷ rate constant with model thiol (fold); conditions: additional mutation C177A; for Rate constant with Cdk2 T182C: Protein: Cdk2, cysteine position T182C, in h^-1
T7 construct: poly-histidine; made in house; host or cells: E. coli
In short: as §1

Cdk2(R122C) (C177A) = target: T8, Cdk2(R122C) (C177A) (Homo sapiens, UniProt P24941, C177A/R122C); assay: Kinetic thiol consumption assay with Cdk2 mutant R122C; format: binding; set-up: key to Rate enhancement, Cdk2 R122C: rate constant with Cdk2 ÷ rate constant with model thiol (fold); conditions: additional mutation C177A; for Rate constant with Cdk2 R122C: Protein: Cdk2, cysteine position R122C, in h-1
T8 construct: poly-histidine; made in house; host or cells: E. coli
In short: as §1

Cdk2(S181C) (C177A) = target: T9, Cdk2(S181C) (C177A) (Homo sapiens, UniProt P24941, C177A/S181C); assay: Kinetic thiol consumption assay with Cdk2 mutant S181C; format: binding; set-up: key to Rate enhancement, Cdk2 S181C: rate constant with Cdk2 ÷ rate constant with model thiol (fold); conditions: additional mutation C177A; for Rate constant with Cdk2 S181C: Protein: Cdk2, cysteine position S181C, in h^-1
T9 construct: poly-histidine; made in house; host or cells: E. coli
In short: as §1

SMILES | Rate constant with Cdk2 (k(Cdk2)) [2] | Rate enhancement, Cdk2 WT [2] | Rate constant with Cdk2 WT [2] | k(Cdk2)/k(Cdk2_mut) rate enhancement [2] | k(Cdk2)/k(GSH) rate enhancement [2] | Rate constant with Cdk2[C177A, F80C, K278C] (k(Cdk2_mut)) (Cdk2[C177A, F80C, K278C]) | Rate enhancement, Cdk2 F80C (Cdk2(C177A, F80C)) | Rate constant with Cdk2 F80C (Cdk2(C177A, F80C)) | Rate enhancement, Cdk2 H71C (Cdk2(H71C) (C177A)) | Rate enhancement, Cdk2 S276C (Cdk2(S276C) (C177A)) | Rate enhancement, Cdk2 N272 (Cdk2(N272C) (C177A)) | Rate enhancement, Cdk2 T182C (Cdk2(T182C) (C177A)) | Rate enhancement, Cdk2 R122C (Cdk2(R122C) (C177A)) | Rate enhancement, Cdk2 S181C (Cdk2(S181C) (C177A)) | Rate constant with Cdk2 S181C (Cdk2(S181C) (C177A)) | Rate constant with Cdk2 S276C (Cdk2(S276C) (C177A)) | Rate constant with Cdk2 N272C (Cdk2(N272C) (C177A)) | Rate constant with Cdk2 T182C (Cdk2(T182C) (C177A)) | Rate constant with glutathione (k(GSH)) [1] | Rate constant with Glutathione [1] | other results
C=CC(=O)N(C(=O)C=C)c1c2ccccc2n2c(C)nc3ccccc3c12 [CA-152] | 0.8358 | 0.4371 | 3.498 | 0.2732 | 3.342 | 3.059 | 0.1587 | 1.27 | 0 | 0 | 0 | 0 | 0 | 0.9118 | 7.297 | – | – | – | 0.2501 | 8.003 | –
C=CC(=O)Nc1cccc(C(F)(F)F)c1 [BN-80] | 0.0419 | 1.405 | 0.0419 | 0.3263 | 1.404 | 0.1284 | 1.308 | 0.03902 | 0.1247 | 0.6024 | 0.2072 | 4.026 | 0.5528 | 0.4626 | 0.0138 | 0.01797 | 0.006181 | 0.1201 | 0.02984 | 0.02983 | Rate constant with Cdk2 H71C (Cdk2(H71C) (C177A)): 0.003721; Rate constant with Cdk2 R122C (Cdk2(R122C) (C177A)): 0.01649
C=CC(=O)N1CCCc2sccc2C1 [CA-034] | 0.02784 | 1.053 | 0.01944 | 2.793 | 2.056 | 0.00997 | 1.278 | 0.02361 | 1.75 | 2.718 | 0.7223 | 10.15 | 0.6416 | 0.5858 | 0.01082 | 0.0502 | 0.01334 | 0.1874 | 0.01354 | 0.01847 | Rate constant with Cdk2 H71C (Cdk2(H71C) (C177A)): 0.03232; Rate constant with Cdk2 R122C (Cdk2(R122C) (C177A)): 0.01185

Second part, led by results:

Rate constant with Cdk2 (k(Cdk2)) [2] | Rate enhancement, Cdk2 WT [2] | Rate constant with Cdk2 WT [2] | k(Cdk2)/k(Cdk2_mut) rate enhancement [2] | k(Cdk2)/k(GSH) rate enhancement [2] | Rate constant with Cdk2[C177A, F80C, K278C] (k(Cdk2_mut)) (Cdk2[C177A, F80C, K278C]) | Rate enhancement, Cdk2 F80C (Cdk2(C177A, F80C)) | Rate constant with Cdk2 F80C (Cdk2(C177A, F80C)) | Rate enhancement, Cdk2 H71C (Cdk2(H71C) (C177A)) | Rate enhancement, Cdk2 S276C (Cdk2(S276C) (C177A)) | Rate enhancement, Cdk2 N272 (Cdk2(N272C) (C177A)) | Rate enhancement, Cdk2 T182C (Cdk2(T182C) (C177A)) | Rate enhancement, Cdk2 R122C (Cdk2(R122C) (C177A)) | Rate enhancement, Cdk2 S181C (Cdk2(S181C) (C177A)) | Rate constant with Cdk2 S181C (Cdk2(S181C) (C177A)) | Rate constant with Cdk2 S276C (Cdk2(S276C) (C177A)) | Rate constant with Cdk2 N272C (Cdk2(N272C) (C177A)) | Rate constant with Cdk2 T182C (Cdk2(T182C) (C177A)) | SMILES | Rate constant with glutathione (k(GSH)) [1] | Rate constant with Glutathione [1] | other results
0.01328 | 0.5173 | 0.01328 | 0.854 | 0.5173 | 0.01555 | 0.4897 | 0.01257 | 1.52 | 0.7713 | 0.5551 | 1.411 | 0.2677 | 1.051 | 0.02699 | 0.0198 | 0.01425 | 0.03623 | C=CC(=O)N1CCN(C(=O)OCC)CC1c1cccs1 (centres unmarked) [EL-1121] | 0.02567 | 0.02567 | Rate constant with Cdk2 H71C (Cdk2(H71C) (C177A)): 0.03901; Rate constant with Cdk2 R122C (Cdk2(R122C) (C177A)): 0.006872
0.00448 | 1.245 | 0.006301 | 0.6762 | 0.8802 | 0.00663 | 1.223 | 0.006191 | 0 | 0.2765 | 0.3073 | 5.254 | 0.606 | 1.564 | 0.007918 | 0.0014 | 0.001556 | 0.0266 | C=CC(=O)N1CCCC1c1ccc(OC)cc1 (centres unmarked) [EL-1062] | 0.00509 | 0.005063 | Rate constant with Cdk2 R122C (Cdk2(R122C) (C177A)): 0.003068

— patent publication US11415579B2, “Assay for measuring a rate of reaction between a target and a ligand candidate” (Imperial College Innovations Ltd., priority 2016, dated 2022)
